Measurements as given in article PMC8545574, “Antioxidant, Anti-Inflammatory, and Antidiabetic Activities of Bioactive Compounds from the Fruits of Livistona chinensis Based on Network Pharmacology Prediction” (Oxidative Medicine and Cellular Longevity, 2021).

Legend:
[1] = target: α-Glucosidase (from Baker's yeast); experiment: α-Glucosidase inhibitory assay (p-NPG substrate); conditions: read-out: IC50 α-Glucosidase inhibitory effect; mean ± SD, n = 3
Protocol: The extract, fractions, and compounds were dissolved in 5% DMSO and then diluted with phosphate buffer. Briefly, 80 μL PBS, 20 μL of varying concentrations of sample solutions, and 20 μL α-glucosidase solution (1.3 U/mL) were mixed and incubated in 96-well plates at 37°C for 5 min. The reaction started when 20 μL p-nitrophenyl-α-D-glucopyranoside (2.5 mM) was added to the plate. The reaction mixture was incubated for 15 min at 37°C, and then, 80 μL Na2CO3 (0.2 M) was added to stop the reaction.

[2] = tested on: insulin-resistant HepG2 cells; experiment: Glucose consumption by insulin-resistant HepG2 cells; assay type: cell-based, human; conditions: for increase of glucose consumption: insulin resistance model of HepG2 cells, compounds at the dose of 50 μM, 24 h; for effect on glucose uptake (in words): insulin-resistant HepG2 cells
Protocol: HepG2 cells were cultivated in DMEM (without phenol red) containing 10% fetal bovine serum at 37°C in a humidified 5% CO2 atmosphere. An insulin-resistant cell model was established in accordance with a previous method, with some modifications. Cells were seeded in a 96-well plate with 1 × 10^4 cells per well. After incubation for 24 h, the medium was replaced with serum-free medium (without phenol red) containing 5 × 10^−6 mol/L insulin and incubated for 24 h. The cell culture medium was then replaced with the samples at different concentrations. The compounds were first dissolved in DMSO and subsequently diluted with medium containing 1% FBS to achieve different concentrations. The final concentration of DMSO was no more than 0.1%. At the end of the 24 h incubation, glucose in the medium was measured using the glucose oxidase-peroxidase method kit (Nanjing Jiancheng Biological Co., Ltd.). The amount of glucose consumption was calculated as follows: (glucose of the DMEM − glucose concentration of each well).

[3] = target: T1, PTP1B (Homo sapiens, UniProt P18031); experiment: PTP1B inhibitory assay (p-NPP substrate)
T1 sequence (P18031 1-321 limits assumed): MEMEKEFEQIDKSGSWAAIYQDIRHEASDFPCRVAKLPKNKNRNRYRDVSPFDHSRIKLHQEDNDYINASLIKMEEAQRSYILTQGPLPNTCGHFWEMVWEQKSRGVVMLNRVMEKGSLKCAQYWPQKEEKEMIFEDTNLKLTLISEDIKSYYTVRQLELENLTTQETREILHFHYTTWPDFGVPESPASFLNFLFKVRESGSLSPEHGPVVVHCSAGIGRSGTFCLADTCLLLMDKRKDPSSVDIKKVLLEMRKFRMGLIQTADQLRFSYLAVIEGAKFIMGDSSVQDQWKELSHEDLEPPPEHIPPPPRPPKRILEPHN
Protocol: PTP1B (10 μg/mL stock solution) was dissolved in 10 mM citrate buffer (pH 6.0), 1 mM dithiothreitol (DTT), and 1 mM N, N, N′, N′-ethylenediaminetetraacetate (EDTA). 20.0 μL PTP1B stock solution and 60 μL citrate buffer were added to each well of a 96-well plastic plate.

[4] = target: T1, PTP1B; experiment: Fluorescence quenching measurement of PTP1B; assay type: binding; set-up: purchased Abcam (Shanghai) Trading Co., Ltd. ab51277; conditions: for Kd: read-out: K A (binding constant) (converted)
Protocol: 180 μL of the buffer with 10 μL of the PTP1B at the concentration used in the assays were added into the 96-well black plates followed by 10 μL different concentrations (0, 6.25, 9.37, 12.5, 18.75, 25, and 50 μM) of inhibitor. The excitation wavelength was set at 250 nm, and the fluorescence emission spectra were collected from 300-400 nm with an emission bandwidth of 2 nm. The quenching parameters such as the Stern-Volmer constant (KSV), binding constant (KA), and the number of binding sites (n) were determined by the formula [33]. (4) F0/F=1+KSVQf,logFo−F/F=logKA+nlogQf, where F0 and F are the fluorescence intensities in the absence and presence of a quencher and [Q]f is a concentration of compounds.

[5] = ABTS radical cation scavenging assay; assay type: biochemical; conditions: mean ± SD, n = 3
Protocol: The ABTS radical cation (ABTS·+) was prepared by reacting ABTS with potassium persulfate following the method previously described. The ABTS radical cation (ABTS·+) was prepared by mixing with 2.45 mM potassium persulfate and equal volumes of an ABTS solution (7 mM), and then, they were permitted to react in the darkness at room temperature for 12–16 h. Thereafter, the ABTS reagent was diluted with methyl alcohol until reaching an absorbance of 0.70 ± 0.02 units at 734 nm. In a 96-well microplate, ABTS reagent (190 μL in each well) and samples (10 μL in each well) were incubated at room temperature for 20 min. To determine the antioxidant capacity by the ABTS method, the experimental conditions and protocol were identical to those of the DPPH assay. The only difference was that the absorbance was measured at 734 nm.

[6] = target: T1, PTP1B; experiment: PTP1B enzyme inhibition kinetic study (Lineweaver-Burk and Dixon plots); assay type: biochemical; set-up: purchased Abcam (Shanghai) Trading Co., Ltd. ab51277; conditions: for Ki: determined by Dixon plots; for Inhibitory mode: determined by Lineweaver-Burk plots
Protocol: Lineweaver−Burk double reciprocal plot and Dixon plot were used to study the kinetic behavior of active compounds against PTP1B and the corresponding inhibition constants (Ki values). […] The plate reader recorded the absorbance of the reaction mixture every 3 mins. The enzymatic velocity of the enzyme reaction was calculated based on the time − Δabs plot. The Lineweaver−Burk plot and Dixon plot were generated by GraphPad Prism 8 in order to determine the type of PTP1B inhibition and Ki.

[7] = DPPH free radical scavenging assay; assay type: biochemical; conditions: mean ± SD, n = 3
Protocol: The DPPH free radical scavenging assay was performed according to a previously reported method. A series of different concentrations of the tested samples and the positive control ascorbic acid were mixed with freshly prepared DPPH (0.2 mM) in a 96-well microplate with a total volume of 150 μL. After leaving the mixture to react in the dark for 30 min, its absorbance was determined at 517 nm. All of the wells with only samples were set as blanks to obtain an absorbance value, which was subtracted from the test sample readings. The percentage inhibition (%) for each sample was calculated by the following formula: (1) Inhibition %=Absblank−Abssamples/Absblank×100%, where Absblank and Abssamples correspond to the absorbance units (at 517 nm) of DPPH solutions incubated in the absence and presence of the tested samples.

[8] = tested on: LPS-stimulated NO release in RAW 264.7 cells; experiment: Nitrite (Griess) assay of LPS-stimulated NO release; assay type: cell-based; conditions: Mus musculus, RAW264.7, LPS (1 μg/mL)-stimulated RAW 264.7 cells; mean ± SD, n = 3; read-out: IC50 NO production anti-inflammatory effect
Protocol: The level of NO production was tested by measuring the nitrite level in the culture medium with the Griess method. Cells were seeded at a density of 2 × 10^4 cells per well in 96-well plates. […] A microplate reader was employed for the optical density measurement at 570 nm.

IC50 [1] [µM]	IC50 [3] [µM]	K SV (Stern-Volmer constant) [4] [L/mol]	n (number of binding sites) [4]	Kd [4] [µM]	IC50 [5] [µM]	Ki [6] [nM]	Inhibitory mode [6]	IC50 [7] [µM]	IC50 [8] [µM]	Structure (SMILES)	increase of glucose consumption [2] [%]	effect on glucose uptake (in words) [2]
> 100	22.2 ± 0.58	22000	1.12	76.9	> 100	4180	Mixed-type	99.36 ± 0.44	49.4 ± 1.85	COc1c(O)cc(O)c2c(=O)cc(-c3ccccc3)oc12 [Compound 6, wogonin]		little effect
73.1 ± 2.33	92.39 ± 0.71				26.97 ± 0.21			> 100	83.16 ± 0.24	COc1cc([C@@H](O)[C@H](CO)Oc2ccc(CCCO[C@@H]3O[C@H](CO)[C@@H](O)[C@H](O)[C@H]3O)cc2OC)ccc1O [Compound 22, erythro-(7R,8S)-4,7,9,9′-tetrahydroxy-3,3′-dimethoxy-8-O-4′-neolignan-9′-O-β-D-glucopyranoside]		
82.12 ± 0.56	90.06 ± 0.47				68.2 ± 0.76			> 100	73.16 ± 0.34	COc1cc([C@H](O)[C@H](CO)Oc2ccc(CCCO[C@@H]3O[C@H](CO)[C@@H](O)[C@H](O)[C@H]3O)cc2OC)ccc1O [Compound 23, threo-(7R,8R)-4,7,9,9′-tetrahydroxy-3,3′-dimethoxy-8-O-4′-neolignan-9′-O-β-D-glucopyranoside]		
34.4 ± 0.5	26.75 ± 0.21				25.58 ± 0.12			95.7 ± 2.44	55.5 ± 1.85	COc1cc([C@H]2OC[C@H]3[C@@H]2CO[C@@H]3c2cc(OC)c(O)c(OC)c2)ccc1O [Compound 30, (+)-medioresinol]		
22.7 ± 1.07	63.19 ± 0.33				31.1 ± 0.44			62.44 ± 0.42	79.7 ± 1.17	COc1cc([C@H]2OC[C@H]3[C@H]2CO[C@@H]3c2cc(OC)c(O[C@@H](CO)[C@@H](O)c3cc(OC)c(O)c(OC)c3)c(OC)c2)cc(OC)c1O [Compound 36, (7S,7′S,7^″S,8R,8′R,8^″R)-4′,4^″-dihydroxy-3,3′,3^″,5,5′,5^″-hexamethoxy-7,9′:7′,9-diepoxy-4,8^″-oxy-8,8′-sesquineolignan-7^″,9^″-diol]		

More lines, now with the values behind:

Structure (SMILES)	IC50 [1] [µM]	IC50 [3] [µM]	K SV (Stern-Volmer constant) [4] [L/mol]	n (number of binding sites) [4]	Kd [4] [µM]	IC50 [5] [µM]	Ki [6] [nM]	Inhibitory mode [6]	IC50 [7] [µM]	IC50 [8] [µM]	increase of glucose consumption [2] [%]	effect on glucose uptake (in words) [2]
COC1(C)CC2c3c(cc(O)cc3O1)OC(c1ccc(O)c(O)c1)C2O (stereo not shown) [Compound 1, Livischinol]	37.3 ± 0.74	9.41 ± 0.08	37000	1.08	10.5	34.91 ± 0.07	1490	Competitive	46.8 ± 1.53		48.9	stimulated glucose uptake
COc1cc([C@@H](O)[C@H](CO)Oc2ccc([C@@H]3OC[C@@H]4[C@H]3CO[C@H]4c3ccc(O)c(OC)c3)cc2OC)ccc1O [Compound 32]	5.71 ± 0.17	81.93 ± 0.78				40.63 ± 0.23			96.4 ± 2.26	46.2 ± 0.67		
COc1cc([C@@H](O)[C@H](CO)Oc2c(OC)cc([C@@H]3OC[C@@H]4[C@H]3CO[C@H]4c3cc(OC)c(O)c(OC)c3)cc2OC)ccc1O [Compound 35, (7R,7′R,7^″R,8S,8′S,8^″S)-4′,4^″-dihydroxy-3,3′,3^″,5,5′-pentamethoxy-7,9′:7′,9-diepoxy-4,8^″-oxy-8,8′-sesquineolignan-7^″,9^″-diol]	19.7 ± 0.21	63.16 ± 0.3				31.18 ± 0.24			65.9 ± 1.52	26.2 ± 0.19		
COc1cc(O)cc2c1C(=O)c1c(cc(C)c(C(=O)OCC(O)CO)c1O)C2=O (stereo not shown) [Compound 44, variecolorquinones A]	29.6 ± 0.4	15.8 ± 0.29	23000	0.97	17.2	13 ± 0.27	2800	Competitive	23.1 ± 0.27		42.8	stimulated glucose uptake
CN(CCOc1ccc(CC2SC(=O)NC2=O)cc1)c1ccccn1 (stereo not shown) [rosiglitazone, reference compound]											46.7	
